Source: ChEMBL document CHEMBL3507680, “University of Dundee, Gates Library screen for HepG2 cell viability”

Experiment: Human HepG2 cell viability assay in 384 well format
Type: toxicity, cell-based
Set-up: dose 125 nL, time 70.5 hour; concentration not given beside the values
Details: HepG2 cells, read-out: Inhibition

Compound | cytotoxicity at 70.5 h [%]
CC(C)c1cc(C(=O)N2CCC3(CCc4ccccc4C(=O)N3)C2)on1 (centres undefined) | -2.23
Cc1ccc(-c2nnn(CCN3C(=O)CCC3=O)n2)cc1 | -3.33
c1ccc(O[C@H]2CO[C@@]3(CCN(Cc4ccc5c(c4)OCO5)C3)C2)nc1 | 0.478
O=C1OCCN1CCN1CCCN(Cc2ccccc2F)CC1 | -4.26
Cc1nc(O)cc(CN2CC=C(c3cnn(C(C)(C)C)c3)CC2)n1 | -10.5
CCC(=O)N1CCCCC[C@@H]2[C@@H]1[C@H](c1cccc(F)c1)CN2C | 16.4
COCCc1noc(CN(C)c2cc(C)ncn2)n1 | 17.1
CN(CCCNS(=O)(=O)N1CCC2(CC1)OCCO2)c1ccccc1 | 22.7
CN(CCC(=O)NC1CC1)Cc1ccc(Cl)s1 | -7.03
Cc1ccc(CCNC(=O)CC2COCCN2S(=O)(=O)N(C)C)o1 (centres undefined) | 13.5
O=C(c1cccc(S(=O)(=O)NC[C@@H]2C[C@H](F)CN2)c1)N1CCCCC1 | 4.39
O=C(Cn1cccnc1=O)NC(Cc1ccsc1)c1nccs1 (centres undefined) | 17.6
COc1ccc(CC(=O)N2CCCC(n3nc(C)cc3C)C2)cc1 (centres undefined) | -3.95
CCNc1cc2c(nn1)CCN(C(=O)c1ccc(NC3CC3)nc1)C2 | 1.85
CCS(=O)(=O)CC(=O)NC1CCc2nccn2C1 (centres undefined) | -4.08
CC(C)OCCN1CCC(Nc2ncc(Br)cn2)CC1 | -7.14
Cc1cnn(CCNCC(O)c2ccc3c(c2)OCCO3)c1 (centres undefined) | 4.42
CN(C)C(=O)CCc1cncc(C2CCCN2Cc2ccccn2)n1 (centres undefined) | -6.05
O=C(CS(=O)(=O)C1CCCC1)NC1CCCc2cc(OC(F)F)ccc21 (centres undefined) | -9.47
CC(C)C(=O)N1CCc2nc(C(=O)Nc3cccnc3)sc2CC1 | -2.65
CCC[C@@H]1CN(Cc2ccc3c(c2)OCCO3)C[C@H]1C(=O)O | -0.0956
CC(C)C(=O)NCCCNC(=O)Nc1cc(-c2ccccc2)ns1 | -12.9
Cc1cc2c(N3CCC(N(C)Cc4nccs4)CC3)ncnc2s1 | 9.35

Compound | cytotoxicity at 70.5 h [%]
O=C(NCC1Cn2nnc(-c3ccsc3)c2CO1)N1CCCC1 (centres undefined) | -7.85
O=C(C1CN(CC2CCOCC2)CC12CCOCC2)N1CCCC1 (centres undefined) | -2.27
COc1ccnc(NC(=O)c2cnccn2)c1 | -7.62
CN(C)C(C(=O)N1CCN(CC(F)(F)F)CC1)c1ccccc1F (centres undefined) | -1.96
CCOCC1c2c(cnn2C)CCN1C(=O)c1cc(C)on1 (centres undefined) | 6.2
CCN(CCn1cccn1)Cc1nc(-c2ccccc2F)oc1C | -7.43
Cn1nccc1C(=O)N1CCCC1c1[nH]ncc1C(N)=O (centres undefined) | -6.47
Fc1ccc(-c2nc(CN3CCCC3Cn3cncn3)co2)cc1F (centres undefined) | 17.9
CCc1nc2n(n1)CC(NCc1ccnc(-c3ccccc3)n1)CC2 (centres undefined) | -10
CCN1CCC12CCN(C(=O)c1ccsc1)C2 (centres undefined) | -12.4
O=C(NC1COC2(CCN(CC3CCC3)CC2)C1)c1ccccn1 (centres undefined) | 1.22
O=S(=O)(NCc1ccccc1)N(Cc1ccccn1)CC1CCCO1 (centres undefined) | -2.95
COc1cccc(NC(=O)C2CC(=O)n3cnnc3S2)c1 (centres undefined) | 2.31
Cc1cnc(N2CCCC(c3ccccc3)C2)nc1-c1ncnn1C (centres undefined) | -9.97
CCNC(=O)O[C@H]1COCCN(c2nc3ccccc3s2)C1 | -2.95
Cn1ccnc1CN(CCCO)CC(F)(F)F | 0.0577
OCCO[C@H]1C[C@@H](O)C12CCN(Cc1nc(C(F)(F)F)no1)CC2 | -8.19
COc1ccccc1OC1CCN(C(=O)CCCN2CCOCC2)CC1 | -9.29
O=C1CC(c2cccnc2)c2c(c(C(=O)O)cn2-c2ccccc2F)N1 (centres undefined) | -13.2
CC(=O)N1CCN([C@@H]2CN(C(=O)c3ccccc3)C[C@H]2O)CC1 | -5.08
Cc1nsc(NCCNS(=O)(=O)c2ccccc2)n1 | -1.39
CC(C)CN1CCC(NC(=O)NCCC(=O)NCc2ccccc2)CC1 | -2.46
O=C1CC[C@]2(CC[C@@H](NC(=O)NCc3cccnc3)CC2)N1 | -2.72

Compound | cytotoxicity at 70.5 h [%]
O=C(N[C@@H]1c2ccccc2C[C@@H]1O)C1CCN(Cc2ccco2)CC1 | -0.979
Cc1cnc(N2C(=O)CSC2c2ccccc2)s1 (centres undefined) | -9.48
CSc1ccc(NC(=O)NCC2CCCO2)cc1F (centres undefined) | 11.2
CC(CC(=O)Nc1ncn(CC(=O)N2CCCCCC2)n1)C1CC1 (centres undefined) | 0.138
CCCNC(=O)CCC(=O)N1CCC(c2n[nH]c(C3CC3)n2)CC1 | 21.7
O=c1oc(-c2cccs2)nn1CC(O)c1ccc(F)cc1 (centres undefined) | -11.2
CCc1nnsc1C(=O)N1CCCN(Cc2ccc(C)cc2)CC1 | -8.18
c1ccc(-c2noc(CCNC3CCOC4(CCOCC4)C3)n2)nc1 (centres undefined) | -8.03
O=C(Cc1ccc(F)cc1Cl)N1C[C@@H](CN2CCC(O)CC2)[C@@H](CO)C1 | -3.43
CC(C)c1nnc2n1CCN(Cc1ccc3c(c1)OCCO3)C2 | 0.93
Cc1ccccc1CN1CCCN(C(=O)c2ccn(C)c(=O)c2)CC1 | -1.43
O=C(c1c[nH]nn1)N1CCCC1C1CCCCC1 (centres undefined) | -8.52
Cc1cc(C(=O)N2C[C@H]3CC[C@@H]2CN(C)C3)ccc1Cl | 29.4
Cc1nn(C)c(C)c1CNC(=O)c1cc(NC(=O)C2CC2)n(C)n1 | -7.51
OC[C@@H]1CCCN1c1nccc(-c2c[nH]nc2-c2ccncc2)n1 | -2.39
CCn1c(C(=O)N2CCN(C(=O)NC(C)C)CC2)cc2ccccc21 | -9.47
COCc1cccc(CNCc2c(C)nn(C)c2N(C)C)c1 | 42.4
CCCc1nc(CN(CC)C(=O)c2ccc(S(C)(=O)=O)cc2)no1 | -8.4
Cc1nn(C(C)C)c(C)c1NC(=O)c1ccccc1 | -0.962
Cc1nsc(C(=O)NCCc2ccc(Cl)cc2)n1 | 2.81
O=C(NCCc1nnc2n1CCC2)NCC1(c2cccc(F)c2)CC1 | -29.8
COCCNc1ccc(CC2CCNC2)cn1 (centres undefined) | -5.62
CC(C)Nc1ncnc2c1CCN(C(=O)NCc1cccc(F)c1)CC2 | -7.17

Compound | cytotoxicity at 70.5 h [%]
CCOCC(=O)NC(C)c1cc(C)ccc1C (centres undefined) | 12.7
Cc1cc(C(=O)N2CCN(S(C)(=O)=O)[C@@H](C)C2)c(F)cc1F | -97.9
CCC1COCCN1C(=O)NCc1nccn1CCc1ccccc1 (centres undefined) | -5.72
c1cc(CN2CC[C@H]3O[C@@H](COCC4CCOCC4)CC[C@H]32)ccn1 | 23.2
COCCC1(C(=O)O)CCCN(Cc2cc3c(cc2C)OCO3)C1 (centres undefined) | -2.46
O=C(NCC(O)c1cccc(O)c1)C1CCN(C2CCCCC2)CC1 (centres undefined) | -11.8
Cn1c(Cn2ccnc2)nnc1C1CCCN(Cc2ccncc2)C1 (centres undefined) | 14
COCC(C)NC(=O)c1nnn(-c2ccc(Br)cc2)n1 (centres undefined) | 10.9
N#Cc1ccccc1OCCN1CCn2c(nnc2C2CC2)C1 | 5.39
Cc1ccc(CN2CCC3(CC2)CN(c2ccccc2)C(=O)CO3)o1 | 23.7
Cc1cc(NC(=O)NCC(C)N2CCOCC2)n(C)n1 (centres undefined) | -6.14
O=C(C1CCCCN1Cc1nc(-c2ccco2)no1)N1CCCC1 (centres undefined) | 4.12
CCCOCC(=O)NS(=O)(=O)c1ccc2c(c1)OCCO2 | -0.678
CC(C)c1nccn1C1CCCN(C(=O)c2cc(C3CC3)on2)C1 (centres undefined) | -3.7
COc1ccccc1OCc1cc(C(=O)NC[C@@H]2CCCN2)n[nH]1 | -1.83
COc1ccc(C(C(=O)O)N(C)Cc2ccon2)cc1Cl (centres undefined) | -4.56
Cc1cc(Cc2ccccc2C)cc(C2CCCNC2)n1 (centres undefined) | -4.93
CS(=O)(=O)CCCC(=O)N1CCN(CC2CC2)c2ccccc21 | -7.11
Cn1cc(CC(=O)N2CCCC(c3cc(C(F)(F)F)[nH]n3)C2)cn1 (centres undefined) | 15.9
Cc1nc(C)n(CC2CCCN(Cc3ccccc3C#N)C2)n1 (centres undefined) | 22.8
Cc1ncsc1CN1CC[C@H]2OCC[C@@]2(C(=O)NC2CC2)C1 | -2.8
CS(=O)(=O)c1ccccc1-n1cc(NC(=O)CC(F)(F)F)cn1 | -4.54
O=C(c1c(F)cc(Br)cc1F)N1CCc2cnccc21 | -5.62

Compound | cytotoxicity at 70.5 h [%]
COc1ccc(NC(=O)NCc2cccc(N(C)C)n2)c(Cl)c1 | -8
CC(C)CN1C(=O)C2(CCN(Cc3cccs3)C2)c2ccccc21 (centres undefined) | -16.4
CNC(=O)c1sccc1S(=O)(=O)NC | -6.63
Cc1ccc(OCC(C)NS(=O)(=O)N(C)C)cc1 (centres undefined) | -5.84
Cc1noc(CN2Cc3ccccc3CC2c2nnc(C)o2)n1 (centres undefined) | 4.3
Cc1nn(C)c(N2CCOCC2)c1CN[C@@H]1c2ccccc2C[C@@H]1O | -0.734
O=C(c1cnc(-c2cccs2)s1)N1CCCN2CCCC2C1 (centres undefined) | -5.78
CC(C)(C)CC(=O)Nc1ccccc1SCC(N)=O | -3.84
CN(C)c1nc(N)nc(CN2CCC(c3ccccc3)CC2)n1 | -10.6
Clc1cccc(-n2cnnn2)c1N1CCCCC1 | 29.1
CN(C)C(=O)N1CCN(c2cc(N3CCCC3CO)ncn2)CC1 (centres undefined) | -4.25
O=C(NC[C@H]1OC[C@@H](NC2CCC2)[C@@H]1O)c1cccs1 | -5.08
CCOC1COC2(CCN(S(=O)(=O)c3ccc(F)cc3)CC2)C1 (centres undefined) | -12.9
COCCN(CC1CCCN(C2Cc3ccccc3C2)C1)C(=O)CO (centres undefined) | -10
CN(Cc1ccsc1)Cc1ccc(C2CCCCO2)o1 (centres undefined) | -3.14
CCCNC(=O)c1ccc(S(=O)(=O)NCC2(O)CCCNC2)cc1 (centres undefined) | -5.48
Fc1cnc(N2CCO[C@H]3[C@H](OCC4CCOCC4)CC[C@@H]32)nc1 | -9.91
Cc1cccc(C(=O)N2CCCN(Cc3cnn(C)c3)CC2)n1 | -19.9
C=C(C)CN1CCC(NC(=O)NCCc2cccc(C(N)=O)c2)CC1 | -3.95
O=C1CC(c2ccccc2F)c2c(n(C3CCCC3)[nH]c2=O)N1 (centres undefined) | -7.2
CCS(=O)(=O)NC1CCCN(Cc2ccn(C)c(=O)c2)C1 (centres undefined) | -9.02
COCCN1CC(=O)c2sc(NCc3ccccc3)nc2C1 | 0.849
